Laboratory results from article PMC10564737, “Structure-based design of a phosphotyrosine-masked covalent ligand targeting the E3 ligase SOCS2” (Nature Communications, 2023).
Several values for one entry are separate records, joined by “and”; a condition that tells them apart may be missing. Equal entries are not always repeated. Where two headings read alike, the source gives them in different places.

Biological target: T1, SBC2 (Homo sapiens, UniProt O14508)
T1 construct: SOCS2 (amino acids 32–198); His6 (N, cleaved yes); made in house; host or cells: E. coli BL21(DE3)
Assay: Covalent fluorescence polarization (FP) probe displacement assay
Format: binding
Conditions: for kinact/KI: read-out: Slope: Kinact/Ki (converted); for Anisotropy based on Raw Data (485): Cycle 7 (30 min); for Fb, fraction bound: Cycle 2 (5 min); for Anisotropy data 485,520,520 / Normalised anisotropy (0 nM MN551 = 1, free probe = 0) / Anisotropy normalised (0 nM MN551 = 1, free probe = 0): n=1
From the text: With the specific covalent modification of Cys111 established, we decided to fully characterize MN551 as a covalent SOCS2 inhibitor. […] (Fig. 2g, h, Supplementary Fig. 9). Due to the covalent nature of the competing inhibitor, a time-dependent reduction in the fraction of protein-bound probe is observed. […] This value illustrates reasonable specificity for a covalent inhibitor, with nonetheless scope for future optimization. In addition to characterizing the kinetic covalency parameters, we have also assessed the stability of the MN551 by monitoring its reactivity (half-life >70 min) with reduced glutathione (GSH) (Supplementary Fig. 10)[35].
To monitor the SBC2-ligand binding kinetics we designed a fluorescein-labeled small-molecule probe - compound 26. The fluorescence polarization (anisotropy) of a threefold serial dilution of 50 µM SBC2 in 10 nM of the probe in 100 mM HEPES pH 7.5, 50 mM NaCl, 0.5 mM TCEP, 2% DMSO was measured to determine the KL (Supplementary Fig. 9A) (BMG Labtech PHERAstar – firmware v1.33). Protein titration and the curves were fitted using GraphPad Prism 9, using one-site fitting models to determine the probe binding constant, KL. Samples were run in triplicate in 384 well plates, using a total volume per well of 16 μL. The bound fraction of the probe is measure using the equation:1 Fb=Af−A/Af−Ab Where,
A time-dependent reduction in probe anisotropy were measured for a 2-fold serial dilution of […] compound MN551 in 10 nM probe +300 μM SBC2. To determine the initial reversible binding affinity, the initial bound fraction of the probe at time = 0, Fbo (the y-intercept in Fb v/s Time plot, Supplementary Fig. 9B) was plotted against MN551 concentration, and the obtained IC50 is then converted to Ki (Supplementary Fig. 9C)[17]. The slope from Fb versus time graph when divided by Fbo gives rate of covalency, kobs. A plot of kobs v/s MN551 concentration using Michaelis–Menten model of GraphPad Prism 9, provides the parameters kinact (maximum potential rate of inactivation) and KI (concentration of MN551 at which kobs = kinact/2) (Supplementary Fig. 9D, E).
The observed first-order rate constant, kobs is related to KI and kinact by the equation:2 kobs=kinactI/KI+I
At [I]«[KI] the above equation is converted to3 […]
The slope from the plot of kobs against concentration of MN551 gives us the covalent efficiency parameter kinact/KI (Supp Fig. 9F)[30],[33].

[1] = MN551 12.599 nM, Cycle 11 (50 min)
[2] = MN551 12.599 nM, Cycle 18 (85 min)
[3] = MN551 17.6386 nM, Cycle 11 (50 min)
[4] = MN551 17.6386 nM, Cycle 12 (55 min)
[5] = MN551 17.6386 nM, Cycle 18 (85 min)
[6] = MN551 24.694 nM, Cycle 11 (50 min)
[7] = MN551 24.694 nM, Cycle 12 (55 min)
[8] = MN551 24.694 nM, Cycle 18 (85 min)
[9] = MN551 34.5716 nM, Cycle 11 (50 min)
[10] = MN551 34.5716 nM, Cycle 12 (55 min)
[11] = MN551 34.5716 nM, Cycle 18 (85 min)

T1 sequence (O14508 32-198): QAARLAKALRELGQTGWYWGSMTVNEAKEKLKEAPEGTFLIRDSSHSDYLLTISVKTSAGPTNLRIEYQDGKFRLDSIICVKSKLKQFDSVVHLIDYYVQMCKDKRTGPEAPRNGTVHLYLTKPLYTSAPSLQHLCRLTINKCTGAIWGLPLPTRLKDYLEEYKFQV
T1 sequence (Q15370 1-104 partner limits assumed): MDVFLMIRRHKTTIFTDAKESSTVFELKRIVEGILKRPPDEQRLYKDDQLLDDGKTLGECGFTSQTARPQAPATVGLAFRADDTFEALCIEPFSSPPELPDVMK
T1 sequence (Q15369 17-112 partner limits assumed): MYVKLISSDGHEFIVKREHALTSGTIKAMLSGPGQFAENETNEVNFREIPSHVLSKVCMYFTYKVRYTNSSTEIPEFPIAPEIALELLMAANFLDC

Structure (SMILES): O=C(CCl)Nc1cccc(CNC(=O)[C@H](Cc2ccc(OP(=O)(O)O)cc2)NC(=O)Cc2ccc(F)cc2)c1 [MN551]
- kinact (FP competition assay to evaluate MN551 covalent efficiency, experiment n=1, from Michaelis-Menten fit (Vmax), read-out: Kinact (converted)): 0.0145 min⁻¹
- kinact (FP competition assay to evaluate MN551 covalent efficiency, experiment n=1, read-out: Kinact (converted)): 0.0145 min⁻¹
- kinact/KI (FP competition assay to evaluate MN551 covalent efficiency, experiment n=1, slope of linear fit, MN551 below Ki titration): 55.8 M⁻¹ s⁻¹
- kinact/KI (FP competition assay to evaluate MN551 covalent efficiency, experiment n=1, slope of linear fit): 55.8 M⁻¹ s⁻¹
- kinact (FP competition assay, replicate n=3, read-out: Kinact (min-1) (converted)): 0.0174 min⁻¹
- kinact (FP competition assay, replicate n=3, read-out: Kinact (s-1)): 0.0174 min⁻¹
- kinact/KI (FP competition assay, replicate n=3): 61.5 M⁻¹ s⁻¹
- Anisotropy based on Raw Data (485) (MN551 12.207 nM): 281.1 and 280.8 and 279.5
- Fb, fraction bound (MN551 12.207 nM): 0.9935 and 1.0185 and 1.023
- Anisotropy (MN551 12.207 nM, Cycle 11 (50 min)): 276.9 and 277 and 280.3
- Anisotropy data 485,520,520 (MN551 12.207 nM, Cycle 18 (85 min)): 272.5 and 273.4 and 274.8
- Anisotropy based on Raw Data (485) (MN551 12.599 nM): 275 and 272 and 270
- Normalised anisotropy (0 nM MN551 = 1, free probe = 0) (MN551 12.599 nM, Cycle 13 (60 min)): 0.9972 and 0.9668 and 1.008
- Normalised anisotropy (0 nM MN551 = 1, free probe = 0) (MN551 12.599 nM, Cycle 14 (65 min)): 1.04 and 1.018 and 1.012
- Fb, fraction bound (MN551 12.599 nM): 1.02 and 0.9926 and 1.014
- Anisotropy [1]: 278.4 and 278.3 and 275.7
- Fb [1]: 1.027 and 1.013 and 1.017
- Fb (MN551 12.599 nM, Cycle 12 (55 min)): 1.006 and 1.0163 and 0.9962
- Anisotropy data 485,520,520 [2]: 273.9 and 272.6 and 271.8
- Anisotropy normalised (0 nM MN551 = 1, free probe = 0) [2]: 1.0213 and 1.004 and 1.0408
- Anisotropy normalised (0 nM MN551 = 1, free probe = 0) (MN551 12.599 nM, Cycle 19 (90 min)): 1.03 and 1.012 and 1.015
- Anisotropy normalised (0 nM MN551 = 1, free probe = 0) (MN551 12.599 nM, Cycle 20 (95 min)): 0.9942 (2×) and 0.9893
- Anisotropy based on Raw Data (485) (MN551 17.6386 nM): 276.7 and 273.3 and 271.3
- Normalised anisotropy (0 nM MN551 = 1, free probe = 0) (MN551 17.6386 nM, Cycle 13 (60 min)): 1.033 and 0.9926 and 1.023
- Normalised anisotropy (0 nM MN551 = 1, free probe = 0) (MN551 17.6386 nM, Cycle 14 (65 min)): 1.058 and 1.0113 and 1.0096
- Fb, fraction bound (MN551 17.6386 nM): 1.066 and 1.015 and 1.047
- Anisotropy [3]: 282.4 and 277.6 and 277.2
- Fb [3]: 1.065 and 1.007 and 1.031
- Anisotropy [4]: 282.3 and 277.4 and 277.1
- Fb [4]: 1.042 and 1.027 and 1.02
- Anisotropy data 485,520,520 [5]: 277.5 and 272.7 and 272.2
- Anisotropy normalised (0 nM MN551 = 1, free probe = 0) [5]: 1.056 and 1.005 and 1.045
- Anisotropy normalised (0 nM MN551 = 1, free probe = 0) (MN551 17.6386 nM, Cycle 19 (90 min)): 1.075 and 1.012 and 1.027
- Anisotropy normalised (0 nM MN551 = 1, free probe = 0) (MN551 17.6386 nM, Cycle 20 (95 min)): 1.027 and 0.9971 and 1.019
- Anisotropy based on Raw Data (485) (MN551 24.4141 nM): 282.9 and 279.8 and 282
- Fb, fraction bound (MN551 24.4141 nM): 1.016 and 1.08 and 1.041
- Anisotropy (MN551 24.4141 nM, Cycle 11 (50 min)): 280.9 and 281.2 and 279.7
- Anisotropy (MN551 24.4141 nM, Cycle 12 (55 min)): 280
- Anisotropy data 485,520,520 (MN551 24.4141 nM, Cycle 18 (85 min)): 276.9 and 277.7 and 276.3
- Anisotropy based on Raw Data (485) (MN551 24.694 nM): 274.8 and 272.6 and 276.9
- Normalised anisotropy (0 nM MN551 = 1, free probe = 0) (MN551 24.694 nM, Cycle 13 (60 min)): 1.02 and 0.977 and 1.0251
- Normalised anisotropy (0 nM MN551 = 1, free probe = 0) (MN551 24.694 nM, Cycle 14 (65 min)): 1.023 and 1.014 and 1.022
- Fb, fraction bound (MN551 24.694 nM): 1.025 and 1.008 and 1.0546
- Anisotropy [6]: 280.6 and 275.8 and 277.4
- Fb [6]: 1.048 and 0.9896 and 1.033
- Anisotropy [7]: 282.7 and 278.3 and 277.5
- Fb [7]: 1.046 and 1.035 and 1.024
- Anisotropy data 485,520,520 [8]: 274.3 and 273.5 and 273.4
- Anisotropy normalised (0 nM MN551 = 1, free probe = 0) [8]: 1.025 and 1.012 and 1.057
- Anisotropy normalised (0 nM MN551 = 1, free probe = 0) (MN551 24.694 nM, Cycle 19 (90 min)): 1.038 and 1.023 and 1.016
- Anisotropy normalised (0 nM MN551 = 1, free probe = 0) (MN551 24.694 nM, Cycle 20 (95 min)): 1.035 and 1.007 and 1.013
- Anisotropy based on Raw Data (485) (MN551 34.5716 nM): 274.4 and 276.1 and 281.6
- Normalised anisotropy (0 nM MN551 = 1, free probe = 0) (MN551 34.5716 nM, Cycle 13 (60 min)): 1.034 and 1.023 and 1.046
- Normalised anisotropy (0 nM MN551 = 1, free probe = 0) (MN551 34.5716 nM, Cycle 14 (65 min)): 1.052 and 1.027 and 1.028
- Fb, fraction bound (MN551 34.5716 nM): 1.054 and 1.044 and 1.086
- Anisotropy [9]: 283.1 and 279.4 and 279.3
- Fb [9]: 1.072 and 1.024 and 1.051
- Anisotropy [10]: 281.9 and 279 and 279.2
- Fb [10]: 1.038 and 1.042 and 1.04
- Anisotropy data 485,520,520 [11]: 278.1 and 277 and 275.1
- Anisotropy normalised (0 nM MN551 = 1, free probe = 0) [11]: 1.062 and 1.046 and 1.074
- Anisotropy normalised (0 nM MN551 = 1, free probe = 0) (MN551 34.5716 nM, Cycle 19 (90 min)): 1.076 and 1.071 and 1.037
- Anisotropy normalised (0 nM MN551 = 1, free probe = 0) (MN551 34.5716 nM, Cycle 20 (95 min)): 1.051 and 1.0281 and 1.04
- Anisotropy based on Raw Data (485) (MN551 48.4003 nM): 280.1 and 278.6 (2×)
- Normalised anisotropy (0 nM MN551 = 1, free probe = 0) (MN551 48.4003 nM, Cycle 13 (60 min)): 1.018 and 0.9871 and 0.9961
- Normalised anisotropy (0 nM MN551 = 1, free probe = 0) (MN551 48.4003 nM, Cycle 14 (65 min)): 1.029 and 1 and 1.015
